Results as given in the supplement of paper PMC10307832.

What was measured:
Experiment in all cases: relative viability (nuclei count vs DMSO), 5 days (fraction); higher = more cells survive
NCI-H441 = tested on: NCI-H441
Method in brief: (§1)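 Values are medians from duplicate plates. Each reflects relative viability, defined as the nuclei count of treated wells over that of vehicle wells. Lung cancer cell lines in 1536-well plates were pin-tool dosed one day after seeding with one drug alone or with a fixed anchor-drug dose plus five library-drug doses (not always all listed) in √10 steps, then fixed, stained and imaged at 4× after 5 days.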

HCC-44 = tested on: HCC-44
Method in brief: as §1

NCI-H647 = tested on: NCI-H647
Method in brief: as §1

HCC-366 = tested on: HCC-366
Method in brief: as §1

H3255 = tested on: H3255
Method in brief: as §1

LCLC-103H = tested on: LCLC-103H
Method in brief: as §1

NCI-H1755 = tested on: NCI-H1755
Method in brief: as §1

NCI-H596 = tested on: NCI-H596
Method in brief: as §1

NCI-H2009 = tested on: NCI-H2009
Method in brief: as §1

PC-3 [JPC-3] = tested on: PC-3 [JPC-3]
Method in brief: as §1

NCI-H2405 = tested on: NCI-H2405
Method in brief: as §1

`COCC1(CO)C(=O)C2CCN1CC2` (centres undefined) [PRIMA-1MET] + O=C(CCCCCCC(=O)Nc1ccccc1)NO [Vorinostat] (partner 1 µM) was tested, and the relative viability (NCI-H441; first compound 0.2 µM) was 0.689, the relative viability (NCI-H441; first compound 0.6325 µM) was 0.6 and the relative viability (NCI-H441; first compound 2 µM) was 0.887. For the same compound, the relative viability (NCI-H441; first compound 6.325 µM) was 0.96, the relative viability (NCI-H441; first compound 20 µM) was 0.553 and the relative viability (HCC-44; first compound 0.2 µM) was 1.08. It also gave a relative viability (HCC-44; first compound 0.6325 µM) of 1.03, a relative viability (HCC-44; first compound 2 µM) of 1.18 and a relative viability (HCC-44; first compound 6.325 µM) of 1.18. For the same compound, the relative viability (HCC-44; first compound 20 µM) was 1.06, the relative viability (NCI-H647; first compound 0.2 µM) was 0.849 and the relative viability (NCI-H647; first compound 0.6325 µM) was 0.444. For the same compound, the relative viability (NCI-H647; first compound 2 µM) was 0.549, the relative viability (NCI-H647; first compound 6.325 µM) was 0.538 and the relative viability (NCI-H647; first compound 20 µM) was 0.596. It also gave a relative viability (HCC-366; first compound 0.2 µM) of 0.596, a relative viability (HCC-366; first compound 0.6325 µM) of 0.252 and a relative viability (HCC-366; first compound 2 µM) of 0.249. It also gave a relative viability (HCC-366; first compound 6.325 µM) of 0.336, a relative viability (HCC-366; first compound 20 µM) of 0.0291 and a relative viability (H3255; first compound 0.2 µM) of 0.745. For the same compound, the relative viability (H3255; first compound 0.6325 µM) was 0.779, the relative viability (H3255; first compound 2 µM) was 0.809 and the relative viability (H3255; first compound 6.325 µM) was 0.901. The relative viability (H3255; first compound 20 µM) was 0.656, the relative viability (LCLC-103H; first compound 0.2 µM) was 0.76 and the relative viability (LCLC-103H; first compound 0.6325 µM) was 0.64. For the same compound, the relative viability (LCLC-103H; first compound 2 µM) was 0.558, the relative viability (LCLC-103H; first compound 6.325 µM) was 0.771 and the relative viability (LCLC-103H; first compound 20 µM) was 0.793. The relative viability (NCI-H1755; first compound 0.2 µM) was 0.944, the relative viability (NCI-H1755; first compound 0.6325 µM) was 0.765 and the relative viability (NCI-H1755; first compound 2 µM) was 0.721. It also gave a relative viability (NCI-H1755; first compound 6.325 µM) of 0.748, a relative viability (NCI-H1755; first compound 20 µM) of 0.663 and a relative viability (NCI-H596; first compound 0.2 µM) of 0.694. For the same compound, the relative viability (NCI-H596; first compound 0.6325 µM) was 0.589, the relative viability (NCI-H596; first compound 2 µM) was 0.421 and the relative viability (NCI-H596; first compound 6.325 µM) was 0.732. It also gave a relative viability (NCI-H596; first compound 20 µM) of 0.147, a relative viability (NCI-H2009; first compound 0.2 µM) of 0.752 and a relative viability (NCI-H2009; first compound 0.6325 µM) of 0.801. For the same compound, the relative viability (NCI-H2009; first compound 2 µM) was 0.668, the relative viability (NCI-H2009; first compound 6.325 µM) was 0.5 and the relative viability (NCI-H2009; first compound 20 µM) was 0.381. The relative viability (PC-3 [JPC-3]; first compound 0.2 µM) was 0.964, the relative viability (PC-3 [JPC-3]; first compound 0.6325 µM) was 0.579 and the relative viability (PC-3 [JPC-3]; first compound 2 µM) was 0.76. It also gave a relative viability (PC-3 [JPC-3]; first compound 6.325 µM) of 1.03, a relative viability (PC-3 [JPC-3]; first compound 20 µM) of 0.747 and a relative viability (NCI-H2405; first compound 0.2 µM) of 1.03. For the same compound, the relative viability (NCI-H2405; first compound 0.6325 µM) was 0.945, the relative viability (NCI-H2405; first compound 6.325 µM) was 0.934 and the relative viability (NCI-H2405; first compound 20 µM) was 0.106.
